The values that follow come from US7402575B2, “Methods of treating inflammation” (priority 2003, dated 2008).

The structures appear in SMILES notation. “Also recorded” adds a separate entry of the source.

The assay relates to E. coli sepsis in dogs. Kind of assay: Chitobiose given after 3.5 h of E. coli sepsis, reversal of myocardial depression. In kind it is in vivo, dog. The conditions noted are these: for HR / Pwp: mean±SD. Also noted: HR: unit not given here. As to the method: The E. coli model used in this study was identical to that previously described. Sepsis was induced by the intravenous infusion of 10^10 colony forming units of live E. coli (designation 0111:B4). The bacteria were suspended in normal saline infusion, which was given over 0.5 h. A constant infusion of approximately 5×10^9 colony forming units/h of E. coli was then maintained for the remainder of the experiment.
During the experiment, the animals (16-21) kg were anesthetized with thiopental sodium (20 mg/kg iv) and constantly infused with sufentanil citrate (1 ug/min) and midazolam (5 ug/kg/min). The rates were adjusted to abolish the palpebral reflex. The animals were placed in the supine position; the trachea was intubated with an endotracheal tube; and the lungs were mechanically ventilated at a tidal volume of 20 ml/kg. The ventilator rate was initially set to maintain blood pH at approximately 7.35 and was changed as necessary over the course of the experiment to maintain blood pH as normal as possible. 100% oxygen was inspired to prevent hypoxemia from contributing to the results, and arterial oxygen tension was maintained greater than 500 mmHg over the course of the study in all experiments.
A thermister tipped catheter was advanced from the jugular vein into the pulmonary artery to measure pulmonary arterial pressure, mean pulmonary capillary wedge pressure (Pwp), right atrial pressure, thermodilution cardiac output (CO, Columbus Instruments, Ohio), and to obtain mixed venous oxygen blood samples. A polyethylene catheter was placed into the femoral artery to measure mean blood pressure (MAP) and to withdraw samples of blood for blood gas analysis. All catheters were connected to transducers (Cobe Laboratories) and were referenced relative to the left atrium. All transducers were connected to a chart recorder (Astro-Med, W Warwick, R.I.). Heart rate (HR) was measured from the recorder tracing. Stroke volume (SV) was calculated as CO/heart rate. Stroke work (SW) was calculated from SV×(MAP-Pwp).
After baseline measurements were obtained, bacteria were infused over a six hour period. Chitobiose was infused at 3.5 hours post sepsis after myocardial depression had already developed and was administered over a 0.5 h period. The dose used was 1000 mg (40 mg/kg) in which the drug was mixed in 100 ml D5W. Based on preliminary calculations, this dose could achieve an approximate plasma concentration of 0.5×10^−4 M. 100 mg/hr of chitobiose (5 mg/kg) mixed in 50 ml of D5W was then infused over the remaining course of the experiment. Measurements were obtained after 3.5 hr of sepsis, after treatment, and 1 and 2 hrs post treatment. Stroke work (SW) was the primary measurement of the myocardial contractility used in this study. Pulmonary capillary wedge pressure (Pwp) was used as an index of preload and was maintained constant between conditions at approximately 10 mmHg. Normal saline solution was given as necessary to maintain Pwp relatively constant.
Statistics included one way analysis of variance for repeated measures and Student Newman Keuls' multiple comparison test. The results are reported mean±1SD.

Setting [1] is: post sepsis (3.5 h), before chitobiose.

As for `CC(=O)N[C@H]1[C@H](O[C@H]2[C@H](O)[C@@H](NC(C)=O)C(O)O[C@@H]2CO)O[C@H](CO)[C@@H](O)[C@@H]1O` (stereo partly shown) [chitobiose, N,N′ diacetylglucosamine], under “1 and 2 hrs post treatment”, the “Stroke work post treatment vs 3.5 hrs postsepsis” value is “significant increase in stroke-work at 1 and 2 hrs post treatment; also recorded: increased after chitobiose treatment”. Moreover, the HR stood at 86±20 (1 hr post treatment); 87±12 (2 hrs post treatment); 91±25 (after treatment); 48±9 (baseline); 98±24 under setting [1]. Also, the Pwp is, setting by setting: (1 hr post treatment) 9.5±1.2 mmHg; (2 hrs post treatment) 9.9±0.9 mmHg; (baseline) 10±0.8 mmHg; under setting [1], 9.6±0.8 mmHg; (post treatment) 10.4±0.5. The “Mean arterial pressure after treatment vs 3.5 hrs postsepsis” value (chitobiose 1000 mg over 0.5 h at 3.5 h post sepsis, then 100 mg/hr, 4 dogs) was “significant increase in mean arterial pressure after treatment; also recorded: increased after treatment with chitobiose”. Further, the “Myocardial depression already developed in sepsis” value (chitobiose administered after 3.5 hr of sepsis) is on record as “reversal of the myocardial depression observed”. Where the note is “dog, in vivo”, the “Cardiac output vs baseline” value is on record as “higher at the different conditions as compared with baseline”. In addition, the “Stroke work at the post treatment conditions vs baseline” value (dog, in vivo) is “not different from that found at baseline”. For the same compound, the “Stroke-volume among the treatment conditions” value (dog, in vivo) was “did not reach statistical significance”.
